{"source": "ChEMBL document CHEMBL5344446", "about": "“Constituents from the Polar Extract of Pisolithus arhizus and Their Anti-inflammatory Activity” (J Nat Prod, 2024)", "key": {"[1]": {"test_system": "THP-1", "assay": "Antiinflammatory activity in PMA-differentiated human THP-1 cells assessed as reduction in LPS-induced IL-6 secretion at 25 to 30 ug/ml pretreated with LPS for 3 hrs followed by compound addition and measured after 6 hrs by ELISA", "format": "functional, cell-based", "settings": "dose 25-30 µg/ml"}, "[2]": {"test_system": "THP-1", "assay": "Cytotoxicity against PMA-differentiated human THP-1 cells assessed as reduction in cell viability at 25 to 100 ug/ml measured after 24 hrs by MTT assay", "format": "toxicity, cell-based", "settings": "thp-1, 24 h, dose 25-100 µg/ml"}, "[3]": {"test_system": "THP-1", "assay": "Downregulation of pSTAT3 protein expression in LPS-induced PMA-differentiated human THP-1 cells at […] pretreated with LPS for 3 hrs followed by compound addition and measured after 6 hrs by Western blot analysis", "format": "functional, cell-based", "settings": "dose lower 25.0 mg/ml"}}, "note": "Calls of active or inactive are those of the source. The rule behind the calls is not given here."}
{"smiles": "O=C1O/C(=C(/C(=O)O)c2ccc(O)cc2)C(O)=C1c1ccc2c(O)c(O)cc(C3=C(O)/C(=C(\\C(=O)O)c4ccc(O)cc4)OC3=O)c2c1", "values": [{"measurement": "Activity", "setting": "[1]", "value": "Active"}, {"measurement": "Activity", "setting": "[2]", "value": "Non-Toxic"}, {"measurement": "Activity", "setting": "[3]", "value": "Active"}]}
